Test results reported in patent US20060148871A1, “Metabolic stabilization of substituted adamantane” (priority 2005, published 2006).
One block for each molecule: values may come before it.

Columns and labels:
Assay type in all cases: in vitro ADME
[1] = Metabolic stability screen, human liver microsomes; conditions: for HLM % turnover: 10 μM substrate, 30 min, 37° C., 1 mM NADPH
Experimental: (§1) Each substrate (10 μM) was incubated with microsomal protein (0.1-0.5 mg/ml) in 50 mM potassium phosphate buffer (pH 7.4) in 48-Well plate. The enzyme reaction was initiated by the addition of 1 mM NADPH, then incubated at 37° C. in a Forma Scientific incubator (Marietta, Ohio, USA) with gentle shaking. The reactions were quenched by the addition of 800 μl of ACN/MeOH (1:1, v/v), containing 0.5 μM of internal standard (IS), after 30 min incubation. Samples were then filtered by using Captiva 96-Well Filtration (Varian, Lake Forest, Calif., USA) and analyzed by LC/MS (mass spectrometry). Liver microsomal incubations were conducted in duplicate.
The parent remaining in the incubation mixture was determined by LC/MS. The LC/S system consisted of an Agilent 1100 series (Agilent Technologies, Waldbronn, Germany) and API 2000 (MDS SCIEX, Ontario, Canada). A Luna C8(2) (50×2.0 mm, particle size 3 μm, Phenomenex, Torrance, Calif., USA) was used to quantify each compound at ambient temperature. The mobile phase consisted of (A): 10 mM NH4AC (pH 3.3) and […]: 100% ACN and was delivered at a flow rate of 0.2 ml/min. Elution was achieved using a linear gradient of 0-100% B over 3 min, then held 100% B for 4 min, and returned to 100% A in 1 min. The column was equilibrated for 7 min before the next injection.
(§2) The peak area ratios (each substrate over IS) at each incubation time were expressed as the percentage of the ratios (each substrate over IS) of the control samples (0 min incubation). The parent remaining in the incubation mixture was expressed as the percentage of the values at 0 min incubation. The percentage turnover is calculated using the following equation (Y% turnover=100% […]−X% parent remaining) and is recorded as the percentage turnover in the Table 1.

[2] = In vitro metabolic half-life study, monkey liver microsomes
Experimental: (§3) Example 5 (1 μM) was incubated with microsomal protein (0.5-1.0 mg/ml) in 50 mM potassium phosphate buffer (pH 7.4). After 5 minutes, preincubation at 37° C. in a shaking water bath, the enzyme reaction was initiated by the addition of 1 mM NADPH. Aliquots (200 μl) were removed and added to 100 μl of ACN/MeOH (1:1, v/v), containing 0.5 μM of IS, at the following time points: 0, 5, 10, 15, 20 and 30 min. Samples were then centrifuged at 14000×g for 10 min and the supernatant was analyzed by LC/MS. Additionally, Example 5 (1 μM) was also incubated with hepatocytes in complete culture medium (Waymouth MB 752/1). The reaction was terminated at 0, 1, 3 and 6 hours with the addition of 250 μl of ACN/MeOH (1:1, v/v). Samples were centrifuged and the supernatant was analyzed by LC/MS as described above. […]
(§4) The parent remaining in the incubation mixture was determined by LC/MS. […] A Luna C8(2) (50×2.0 mm, particle size 3 μm, Phenomenex, Torrance, Calif., USA) was used to quantify each compound at ambient temperature. […]
(§5) In vitro half-life of substrate depletion was determined and converted to hepatic intrinsic clearance (Obach R Scott: Prediction of human clearance of twenty-nine drugs from hepatic microsomal intrinsic clearance data: an examination of in vitro half-life approach and nonspecific binding to microsomes. Drug metabolism and Disposition. 1999, 27:1350-1359).

[3] = In vitro metabolic half-life study, mouse liver microsomes; conditions: 1 μM
Experimental: as §3, §4, §5

[4] = In vitro metabolic half-life study, monkey hepatocytes; conditions: 1 μM
Experimental: as §3, §4, §5

[5] = In vitro metabolic half-life study, rat hepatocytes; conditions: 1 μM
Experimental: as §3, §4, §5

[6] = In vitro metabolic half-life study, dog hepatocytes; conditions: 1 μM
Experimental: as §3, §4, §5

[7] = Metabolic stability screen, mouse liver microsomes; conditions: 10 μM substrate, 30 min, 37° C., 1 mM NADPH
Experimental: as §1, §4, §2

[8] = In vitro metabolic half-life study, human liver microsomes; conditions: 1 μM
Experimental: as §3, §4, §5

[9] = In vitro metabolic half-life study, dog liver microsomes
Experimental: as §3, §4, §5

[10] = Metabolic stability screen, rat liver microsomes; conditions: 10 μM substrate, 30 min, 37° C., 1 mM NADPH
Experimental: as §1, §4, §2

[11] = In vitro metabolic half-life study, human hepatocytes; conditions: 1 μM
Experimental: as §3, §4, §5

[12] = In vitro metabolic half-life study, mouse hepatocytes; conditions: 1 μM
Experimental: as §3, §4, §5

[13] = In vitro metabolic half-life study, rat liver microsomes; conditions: 1 μM
Experimental: as §3, §4, §5

- Metabolism in human liver microsomes (HLM), in words [1]: rapidly metabolized
- HLM % turnover [1]: 84%
Compound: CC(C)(C(=O)NC1C2CC3CC(C2)CC1C3)c1ccc(Cl)cc1 (centres unmarked) [Example 2, N-2-adamantyl-2-(4-chlorophenyl)-2-methylpropanamide]

- Metabolism in human liver microsomes (HLM), in words [1]: rapidly metabolized
- HLM % turnover [1]: 83%
Compound: CC(C)(C(=O)NC1C2CC3CC(C2)CC1C3)c1ccccc1 (centres unmarked) [Example 1, N-2-adamantyl-2-methyl-2-phenylpropanamide]

The remaining lines, values behind:

Compound: CC(C)(C(=O)NC1C2CC3CC1CC(C(=O)O)(C3)C2)N1CCN(c2ccc(C(F)(F)F)cn2)CC1 (centres unmarked) [Example 5, E-4-{2-Methyl-2-[4-(5-trifluoromethyl-pyridin-2-yl)-piperazin-1-yl]-propionylamino}-adamantane-1-carboxylic acid]
- Metabolic stability in liver microsomes, in words ([2]; monkey liver microsomes): excellent metabolic stability
- Liver microsomal intrinsic clearance (CLint) ([2]; monkey microsomes, 1 μM): 31.5 mL/min/kg
- Liver microsomal intrinsic clearance (CLint) [3]: 127 mL/min/kg
- Hepatocyte intrinsic clearance (CLint) [4]: 4.67 mL/min/kg
- Hepatocyte intrinsic clearance (CLint) [5]: 5.17 mL/min/kg
- HLM % turnover [1]: 0%
- Hepatocyte intrinsic clearance (CLint) [6]: 3.67 mL/min/kg
- MLM % turnover [7]: 0%
- Liver microsomal intrinsic clearance (CLint) [8]: 4.83 mL/min/kg
- Metabolic stability in liver microsomes, in words ([9]; dog liver microsomes): excellent metabolic stability
- Liver microsomal intrinsic clearance (CLint) ([9]; dog microsomes, 1 μM): 7.5 mL/min/kg
- RLM % turnover [10]: 0%
- Hepatocyte intrinsic clearance (CLint) [11]: 1.5 mL/min/kg
- Hepatocyte intrinsic clearance (CLint) [12]: 13.7 mL/min/kg
- Liver microsomal intrinsic clearance (CLint) [13]: 40 mL/min/kg

Compound: O=C(NC1C2CC3CC(C2)CC1C3)C1(c2ccccc2)CC1 (centres unmarked) [Example 3, N-2-adamantyl-1-phenylcyclopropanecarboxamide]
- Metabolism in human liver microsomes (HLM), in words [1]: rapidly metabolized
- HLM % turnover [1]: 62%

Compound: O=C(NC1C2CC3CC(C2)CC1C3)C1(c2ccc(Cl)cc2)CC1 (centres unmarked) [Example 4, N-2-adamantyl-1-(4-chlorophenyl)cyclopropanecarboxamide]
- Metabolism in human liver microsomes (HLM), in words [1]: rapidly metabolized
- HLM % turnover [1]: 68%
